Measured values from PMC3977056, “Optimum Conditions of Radioligand Receptor Binding Assay of Ligands of Benzodiazepine Receptors” (Iranian Journal of Pharmaceutical Research : IJPR, 2014).

What was measured:
[1] = target: T1, GABAA receptor, benzodiazepine (BZD) binding site (rat cortical membrane); assay: radioligand saturation binding, centrifugation separation
T1 construct: native receptor in cortical membrane of male Sprague-Dawley rats

[2] = target: T1, GABAA receptor, benzodiazepine (BZD) binding site (rat cortical membrane); assay: [3H]-flumazenil competition binding
[3] = target: T1, GABAA receptor, benzodiazepine (BZD) binding site (rat cortical membrane); assay: [3H]-flumazenil competition binding; […] used for nonspecific binding

**Q.** Which Kd [1] does the source give for `CCOC(=O)c1ncn2c1CN(C)C(=O)c1cc(F)ccc1-2` [[3H]-flumazenil] here?
**A.** Its Kd is 1.35 ± 0.316 nM.

**Q.** With `Cc1cc(=O)n2nc(-c3ccccc3)oc2n1` [compound A, 2-phenyl-5-oxo-7-methyl-1,3,4-oxadiazolo[a,2,3]-pyrimidine] as the compound, how does the Ki [2] read?
**A.** Its Ki is 1.9 nM.

**Q.** For `CN1C(=O)CN=C(c2ccccc2)c2cc(Cl)ccc21` [diazepam], which Ki [3] is on record?
**A.** Its Ki is 1.53 nM.
